≈ marks a conversion by molar mass, not a printed value.
Legend:
Assay in all cases: ≥ marks a high value that may be exact or a test limit, other limits are often not marked, values filed in µg/mL are converted to µM
[1] = test system: Bacillus subtilis ATCC 6633
[2] = test system: Escherichia coli ATCC 25922
[3] = test system: Klebsiella pneumoniae ATCC 10031
[4] = test system: Micrococcus luteus ATCC 10240
[5] = test system: Pseudomonas aeruginosa ATCC 27853
[6] = test system: Salmonella enterica subsp. enterica serovar Typhimurium ATCC 14028
[7] = test system: Shigella dysenteriae ATCC 9752
[8] = test system: Staphylococcus aureus ATCC 6538P
[9] = test system: Staphylococcus aureus TK784
[10] = test system: Staphylococcus epidermidis ATCC 12228
[11] = test system: Batrachochytrium dendrobatidis
[12] = test system: Bacillus subtilis AB91021
[13] = test system: Bacillus thuringiensis AB92037
Escherichia coli AB94012 = test system: Escherichia coli AB94012
[14] = test system: Micrococcus luteus AB93113
[15] = test system: Pseudomonas aeruginosa AB93066
[16] = test system: Staphylococcus aureus AB94004
[17] = test system: Staphylococcus aureus P1369
[18] = test system: Staphylococcus aureus P1374
[19] = test system: Staphylococcus aureus P1386
[20] = test system: Staphylococcus epidermidis P1111
[21] = test system: Staphylococcus epidermidis P1389
[22] = test system: Enterobacter cloacae 218R
[23] = test system: Enterococcus faecalis ATCC 29212
[24] = test system: Enterococcus faecalis W61950
[25] = test system: Enterococcus faecalis f43559
[26] = test system: Enterococcus faecium mic80
[27] = test system: Enterococcus faecium t62764
[28] = test system: Escherichia coli ESBL 63103
[29] = test system: Escherichia coli ESBL 64771
[30] = test system: Klebsiella pneumoniae ESBL 61962
[31] = test system: Klebsiella pneumoniae ESBL 63575
[32] = test system: Pseudomonas aeruginosa 198
[33] = test system: Pseudomonas aeruginosa 213
Pseudomonas aeruginosa 9 = test system: Pseudomonas aeruginosa 9
[34] = test system: Pseudomonas aeruginosa H1027
[35] = test system: Pseudomonas aeruginosa H1030
[36] = test system: Pseudomonas aeruginosa LES400
[37] = test system: Pseudomonas aeruginosa PAO1 H103
[38] = test system: Staphylococcus aureus ATCC 25923
[39] = test system: Staphylococcus aureus C623
[40] = test system: Stenotrophomonas maltophilia ATCC 13637
Bacillus subtilis 168 = test system: Bacillus subtilis 168
Escherichia coli B = test system: Escherichia coli B
Escherichia coli ST131 = test system: Escherichia coli ST131
[41] = test system: Klebsiella pneumoniae ST258
Pseudomonas aeruginosa = test system: Pseudomonas aeruginosa
Staphylococcus aureus = test system: Staphylococcus aureus

Which MIC [1] does the source give for `CC(C)C[C@H](NC(=O)[C@H](CC(C)C)NC(=O)[C@H](CCCCN)NC(=O)[C@H](CCCCN)NC(=O)[C@H](CC(C)C)NC(=O)[C@H](Cc1c[nH]c2ccccc12)NC(=O)[C@H](CCCCN)NC(=O)[C@H](CC(C)C)NC(=O)[C@@H](N)CC(C)C)C(=O)N[C@@H](CCCCN)C(=O)N[C@@H](CCCCN)C(N)=O` [LLKWLKKLLKK] here?
The MIC was 1.42 µM (≈ 2 µg/mL).

What about the MIC [2] of the same compound?
The MIC was 2.84 µM (≈ 4 µg/mL).

What about the MIC [3] of the same compound?
The MIC was 2.84 µM (≈ 4 µg/mL).

What about the MIC [4] of the same compound?
Its MIC is 2.84 µM (≈ 4 µg/mL).

What about the MIC [5] of the same compound?
The MIC was 2.84 µM (≈ 4 µg/mL).

And the MIC [6]?
Its MIC is 2.84 µM (≈ 4 µg/mL).

And the MIC [7]?
Its MIC is 1.42 µM (≈ 2 µg/mL).

What about the MIC [8] of the same compound?
Its MIC is 1.42 µM (≈ 2 µg/mL).

And the MIC [9]?
Its MIC is 11.3 µM (≈ 16 µg/mL).

And the MIC [10]?
Its MIC is 1.42 µM (≈ 2 µg/mL).

How did the MIC [11] turn out when `CC[C@H](C)[C@H](NC(=O)CN)C(=O)N[C@@H](CCSC)C(=O)N[C@@H](CC(=O)O)C(=O)N[C@@H](CO)C(=O)N[C@H](C(=O)N[C@@H](CCCCN)C(=O)NCC(=O)N[C@@H](CC(C)C)C(=O)N[C@@H](C)C(=O)N[C@@H](CCCCN)C(=O)N[C@@H](CC(N)=O)C(=O)N[C@@H](CC(C)C)C(=O)N[C@@H](C)C(=O)NCC(=O)N[C@@H](CCCCN)C(=O)N[C@@H](CC(C)C)C(=O)N[C@@H](CC(C)C)C(=O)N[C@@H](CC(=O)O)C(=O)N[C@@H](CO)C(=O)N[C@@H](CC(C)C)C(=O)N[C@@H](CCCCN)C(=O)N[C@H]1CSSC[C@@H](C(=O)O)NC(=O)CNC(=O)[C@H]([C@@H](C)O)NC(=O)[C@H]([C@@H](C)CC)NC(=O)[C@H](CCCCN)NC1=O)C(C)C` [GIMDSVKGLAKNLAGKLLDSLKCKITGC] was run?
Its MIC is 12.5 µM (≈ 35.9 µg/mL).

What about the MIC [2] of the same compound?
The MIC was 17 µM (≈ 48.9 µg/mL).

`CC[C@H](C)[C@H](NC(=O)[C@H](C)NC(=O)[C@H](CO)NC(=O)[C@@H](NC(=O)[C@H](CC(C)C)NC(=O)CNC(=O)CNC(=O)[C@@H](NC(=O)[C@H](CC(C)C)NC(=O)[C@H](CO)NC(=O)[C@@H]1CCCN1C(=O)[C@H](CC(C)C)NC(=O)[C@H](CC(C)C)NC(=O)[C@H](CO)NC(=O)[C@H](Cc1ccccc1)NC(=O)[C@@H](N)Cc1ccccc1)[C@@H](C)CC)C(C)C)C(=O)N[C@@H](CCCCN)C(N)=O` [FFSLLPSLIGGLVSAIK] was tested. Which MIC [12] did it give?
Its MIC is 28.4 µM (≈ 50 µg/mL).

And the MIC [13]?
The MIC was 28.4 µM (≈ 50 µg/mL).

What about the MIC (Escherichia coli AB94012) of the same compound?
The MIC was at least 56.7 µM.

What about the MIC [14] of the same compound?
The MIC was 11.3 µM (≈ 20 µg/mL).

What about the MIC [15] of the same compound?
The MIC was at least 56.7 µM.

And the MIC [16]?
Its MIC is 11.3 µM (≈ 20 µg/mL).

And the MIC [17]?
Its MIC is 28.4 µM (≈ 50 µg/mL).

What about the MIC [18] of the same compound?
The MIC was 28.4 µM (≈ 50 µg/mL).

And the MIC [19]?
Its MIC is 28.4 µM (≈ 50 µg/mL).

And the MIC [20]?
Its MIC is 11.3 µM (≈ 20 µg/mL).

What about the MIC [21] of the same compound?
The MIC was 28.4 µM (≈ 50 µg/mL).

Which MIC [22] does the source give for `CC[C@H](C)[C@H](NC(=O)[C@H](C)N)C(=O)N[C@@H](CCCN=C(N)N)C(=O)N[C@@H](CCCN=C(N)N)C(=O)N[C@@H](Cc1c[nH]c2ccccc12)C(=O)N[C@@H](CCCN=C(N)N)C(=O)N[C@H](C(=O)N[C@@H](CCCN=C(N)N)C(=O)N[C@@H](CCCCN)C(=O)O)[C@@H](C)CC` [AIRRWRIRK] here?
The MIC was at least 68.6 µM.

And the MIC [23]?
The MIC was over 137 µM.

And the MIC [24]?
The MIC was at least 137 µM.

And the MIC [25]?
Its MIC is at least 137 µM.

And the MIC [26]?
Its MIC is at least 68.6 µM.

What about the MIC [27] of the same compound?
The MIC was 8.77 µM (≈ 11 µg/mL).

And the MIC [28]?
The MIC was at least 68.6 µM.

And the MIC [29]?
Its MIC is at least 68.6 µM.

And the MIC [30]?
Its MIC is at least 137 µM.

What about the MIC [31] of the same compound?
Its MIC is at least 137 µM.

What about the MIC [32] of the same compound?
Its MIC is at least 137 µM.

And the MIC [33]?
The MIC was at least 137 µM.

What about the MIC (Pseudomonas aeruginosa 9) of the same compound?
The MIC was at least 137 µM.

And the MIC [34]?
The MIC was at least 137 µM.

And the MIC [35]?
Its MIC is at least 137 µM.

And the MIC [36]?
The MIC was at least 137 µM.

And the MIC [37]?
Its MIC is at least 137 µM.

And the MIC [38]?
The MIC was 34.3 µM (≈ 43 µg/mL).

What about the MIC [39] of the same compound?
Its MIC is at least 34.3 µM.

What about the MIC [40] of the same compound?
The MIC was at least 68.6 µM.

What does the source list for `CC[C@H](C)[C@H](NC(=O)[C@H](CC(C)C)NC(=O)[C@H](CCCCN)NC(=O)CNC(=O)[C@H](CC(C)C)NC(=O)[C@@H](NC(=O)[C@H](CCCCN)NC(=O)[C@H](CCCCN)NC(=O)[C@H](Cc1c[nH]c2ccccc12)NC(=O)[C@H](CCCCN)NC(=O)CN)[C@@H](C)CC)C(=O)N[C@@H](CCCN=C(N)N)C(N)=O` [GKWKKILGKLIR]?
MIC (Bacillus subtilis 168): 1.3 µM (≈ 1.87 µg/mL); MIC [2]: 2 µM (≈ 2.88 µg/mL); MIC (Escherichia coli B): 1.8 µM (≈ 2.59 µg/mL); MIC (Escherichia coli ST131): 2 µM (≈ 2.88 µg/mL); MIC [41]: ≥ 32 µM; MIC (Pseudomonas aeruginosa): 14.2 µM (≈ 20.4 µg/mL); MIC (Staphylococcus aureus): 60 µM (≈ 86.3 µg/mL)

— DBAASP
